Data as given in patent US12534552B2, “Antibacterial polymer” (LG Chem, Ltd., priority 2020, dated 2026).

Assays:
[1] = system: Proteus Mirabilis (ATCC 29906); assay: Antibacterial Test 1: bacterial growth inhibition rate by absorbance at 600 nm; format: cell-based; settings: 0.1 g sample in 25 ml nutrient broth, 3000 CFU/ml, 37° C., 16 hours
Description: Antibacterial tests were performed on the antibacterial polymers prepared in Examples and Comparative Examples. Specifically, in the antibacterial test, the bacterial growth inhibition rate (%) was measured by the following method. In addition, the bacterial growth inhibition rate (%) of Icaridin and Menthol acrylate as single molecules was also measured by the same method and shown as Comparative Examples 2 and 3.
0.1 g of the antibacterial polymer prepared above was added to 25 ml of nutrient broth culture medium inoculated with the test bacterium Proteus Mirabilis (ATCC 29906) at 3000 CFU/ml, and then incubated in a shaking incubator (VS-37SIF, produced by Visiontech) at 37° C. for 16 hours. The absorbance at 600 nm wavelength of the cultured solution was measured using a UV-Vis Spectrophotometer (Optizen POP, produced by K Lab). In addition, in a pure culture medium containing no antibacterial polymer, a solution prepared by culturing Proteus Mirabilis (ATCC 29906) at 37° C. for 16 hours was prepared as a control group, and the absorbance at a 600 nm wavelength was measured by the same manner as above. Using the measurement result, the bacterial growth inhibition rate (%) of Proteus Mirabilis (ATCC 29906) was calculated according to Equation 1 below, and the results are shown in Table 1 below. […]

E. Coli = assay: Antibacterial Test 2: bacterial reduction rate, ASTM E 2149 test method; format: cell-based, Escherichia coli; settings: 0.2 g sample, 10 mL PBS with E. Coli, 37° C., colony count; for 1 hour-bacterial reduction rate: 1 hour-contact; for 24 hour-bacterial reduction rate: 24 hour-contact
Description: Antibacterial tests were performed on the antibacterial polymers prepared in Examples and Comparative Examples. Specifically, based on the ASTM E 2149 antibacterial test method, the bacterial reduction rate (%) was measured by the following method. In addition, the bacterial reduction rates (%) of Icaridin and Menthol acrylate as single molecules was also measured by the same method and shown as Comparative Examples 2 and 3.
The sample (0.2 g) was placed in a 50 mL conical tube, to which 1× PBS (10 mL) inoculated with E. Coli (1.5×10^5 CFU/mL) was added, and cultured for 1 hour and 24 hours in a shaking incubator at 37° C., so as to allow the bacteria and the material to come into sufficient contact with each other. In order to check the colony of E. coli in the cultured sample, the sequentially diluted solution was spread on a TSA Agar plate, and then cultured for 16 hours so as to form colonies in an incubator at 30° C. The degree of bacterial culture was grasped from the number of colonies formed, and the antibacterial performance was compared.
In the above equation, Cs is the number of microorganisms (CFU/ml) in the experimental group, which can be confirmed as the number of colonies formed on the TSA Agar plate, and C0 is the number of microorganisms in the control group, which means the number of E. Coli in PBS to which the sample was not added.

[2] = Comparison of thermal decomposition behavior by TGA of PMMA blends; format: physicochemical; settings: TGA step 4, 50° C. to 600° C., 10° C./min, nitrogen; 40 parts by weight in 100 parts PMMA
Description: Poly(Methyl methacrylate) (TCI Chemical, CAS RN: 9011-14-7) was put into a Mixed Torque Rheometer (HAPRO), and then the temperature was raised to 160° C. and the mixture was mixed for 5 minutes. PIA-2 and icaridin were added in an amount of 40 parts by weight based on 100 parts by weight of poly(methyl methacrylate), respectively, mixed at a temperature of 160° C. for 30 minutes, and then cooled to room temperature to obtain a sample.
In order to confirm the thermal decomposition behavior of the prepared sample, experiments were performed as shown in Table 2 below using TGA (Thermogravimetric Analyzer, TA Instrument, DISCOVERY TGA 550 W/MFC & AUTO).

SMILES	Bacterial growth inhibition rate [1] [%]	1 hour-bacterial reduction rate (E. Coli) [%]	24 hour-bacterial reduction rate (E. Coli) [%]	Thermal decomposition behavior / heat resistance [2]
CCC(C)OC(=O)N1CCCCC1CCO (stereo not shown) [compound 2, Icaridin]	11.24	3.17	13.89	proceeds decomposition from a lower temperature than that of PIA-2
C=CC(=O)OC1CC(C)CCC1C(C)C (stereo not shown) [compound 3, Menthol acrylate]	0.2	0	0	–
